Results: paper PMC5218480 (PLoS ONE, 2017)

System: MV-4-11 cells
Test: Gene expression microarray analysis (Affymetrix PrimeView) and GSEA
Type: cell-based, human
Parameters: RFU PODN (11730768_x_at) / Fold change /veh PODN (11730768_x_at) / RFU LINC00158 (11744669_a_at) / Fold change /veh LINC00158 (11744669_a_at) / RFU DUSP10 (11751237_a_at) / Fold change /veh DUSP10 (11751237_a_at) / RFU ID3 (11757404_x_at) / Fold change /veh ID3 (11757404_x_at) / RFU PLEKHG5 (11737974_s_at) / Fold change /veh PLEKHG5 (11737974_s_at) / RFU LRRC4B (11730491_at) / Fold change /veh LRRC4B (11730491_at) / RFU GIMAP4 (11747438_a_at) / Fold change /veh GIMAP4 (11747438_a_at) / RFU KRT8 (11758183_x_at) / Fold change /veh KRT8 (11758183_x_at) / RFU CNN1 (11734310_a_at) / Fold change /veh CNN1 (11734310_a_at) / RFU VPS37D (11726825_at) / Fold change /veh VPS37D (11726825_at) / RFU C10orf10 (11716522_x_at) / Fold change /veh C10orf10 (11716522_x_at) / RFU KIR2DL2 /// KIR2DL4 /// KIR2DL5A /// KIR2DL5B /// KIR2DS1 /// KIR2DS2 /// KIR2DS3 /// KIR2DS4 /// KIR3DL3 /// KIR3DL3 /// KIR3DS1 (11738374_at) / Fold change /veh KIR2DL2 /// KIR2DL4 /// KIR2DL5A /// KIR2DL5B /// KIR2DS1 /// KIR2DS2 /// KIR2DS3 /// KIR2DS4 /// KIR3DL3 /// KIR3DL3 /// KIR3DS1 (11738374_at) / RFU C1QL1 (11718748_at) / Fold change /veh C1QL1 (11718748_at) / RFU TMPRSS4 (11747572_a_at) / Fold change /veh TMPRSS4 (11747572_a_at) / RFU HAMP (11756126_x_at) / Fold change /veh HAMP (11756126_x_at) / RFU RNFT2 (11725882_a_at) / Fold change /veh RNFT2 (11725882_a_at) / RFU NR4A2 (11747474_a_at) / Fold change /veh NR4A2 (11747474_a_at) / RFU ABCC12 (11746883_a_at) / Fold change /veh ABCC12 (11746883_a_at) / RFU TMEM136 (11760407_x_at) / Fold change /veh TMEM136 (11760407_x_at) / RFU CLDN22 /// WWC2 (11732394_at) / Fold change /veh CLDN22 /// WWC2 (11732394_at) / RFU HLA-DPB1 (11760878_x_at) / Fold change /veh HLA-DPB1 (11760878_x_at) / RFU SPINT1 (11716480_a_at) / Fold change /veh SPINT1 (11716480_a_at) / RFU GAP43 (11754022_s_at) / Fold change /veh GAP43 (11754022_s_at) / RFU A4GNT (11735810_at) / Fold change /veh A4GNT (11735810_at) / RFU PRB3 (11715151_x_at) / Fold change /veh PRB3 (11715151_x_at) / RFU TUBB4B (11761932_at) / Fold change /veh TUBB4B (11761932_at) / RFU CAPN14 (11732068_a_at) / Fold change /veh CAPN14 (11732068_a_at) / RFU TMCC2 (11721928_a_at) / Fold change /veh TMCC2 (11721928_a_at) / RFU IRGQ (11745062_a_at) / Fold change /veh IRGQ (11745062_a_at) / RFU FAM174B (11720279_a_at) / Fold change /veh FAM174B (11720279_a_at) / RFU TMPRSS4 (11748680_a_at) / Fold change /veh TMPRSS4 (11748680_a_at) / RFU FAM212B (11763350_a_at) / Fold change /veh FAM212B (11763350_a_at) / RFU PLEKHG5 (11743358_a_at) / Fold change /veh PLEKHG5 (11743358_a_at) / RFU ZSCAN30 (11745921_a_at) / Fold change /veh ZSCAN30 (11745921_a_at) / RFU CMKLR1 (11741424_a_at) / Fold change /veh CMKLR1 (11741424_a_at) / RFU LOC101060620 /// MAPK8IP1 (11723275_at) / Fold change /veh LOC101060620 /// MAPK8IP1 (11723275_at) / RFU SPTSSB (11747773_x_at) / Fold change /veh SPTSSB (11747773_x_at) / RFU PRSS12 (11739890_at) / Fold change /veh PRSS12 (11739890_at) / RFU BIN1 (11741810_x_at) / Fold change /veh BIN1 (11741810_x_at) / RFU WNT11 (11732464_a_at) / Fold change /veh WNT11 (11732464_a_at) / RFU C10orf10 (11716521_a_at) / Fold change /veh C10orf10 (11716521_a_at) / RFU C5orf56 (11738089_at) / Fold change /veh C5orf56 (11738089_at) / RFU CYB561 (11721691_x_at) / Fold change /veh CYB561 (11721691_x_at) / RFU ANKRD19P (11752326_a_at) / Fold change /veh ANKRD19P (11752326_a_at) / RFU OR2T12 /// OR2T33 /// OR2T8 (11738714_s_at) / Fold change /veh OR2T12 /// OR2T33 /// OR2T8 (11738714_s_at) / RFU VCAN (11748164_a_at) / Fold change /veh VCAN (11748164_a_at) / RFU JSRP1 (11732532_at) / Fold change /veh JSRP1 (11732532_at) / RFU KRTAP10-11 (11738290_x_at) / Fold change /veh KRTAP10-11 (11738290_x_at) / RFU MYO3A (11730013_a_at) / Fold change /veh MYO3A (11730013_a_at) / RFU EBF3 (11725865_a_at) / Fold change /veh EBF3 (11725865_a_at) / RFU CAMK2N1 (11719241_x_at) / Fold change /veh CAMK2N1 (11719241_x_at) / RFU C5orf56 (11738088_a_at) / Fold change /veh C5orf56 (11738088_a_at) / RFU OLFML3 (11715873_a_at) / Fold change /veh OLFML3 (11715873_a_at) / RFU LOC100653217 /// NTM (11731650_a_at) / Fold change /veh LOC100653217 /// NTM (11731650_a_at) / RFU MAPK11 (11762145_a_at) / Fold change /veh MAPK11 (11762145_a_at) / RFU FIZ1 (11724087_x_at) / Fold change /veh FIZ1 (11724087_x_at) / RFU OASL (11726364_x_at) / Fold change /veh OASL (11726364_x_at) / RFU SOX15 (11748057_x_at) / Fold change /veh SOX15 (11748057_x_at) / RFU CD79A (11719716_a_at) / Fold change /veh CD79A (11719716_a_at) / RFU HIST1H1D (11736915_at) / Fold change /veh HIST1H1D (11736915_at) / RFU CASKIN2 (11723855_a_at) / Fold change /veh CASKIN2 (11723855_a_at) / RFU LOC730098 (11760151_x_at) / Fold change /veh LOC730098 (11760151_x_at) / RFU OR4N2 (11742367_at) / Fold change /veh OR4N2 (11742367_at) / RFU PRRT2 (11749266_a_at) / Fold change /veh PRRT2 (11749266_a_at) / RFU SNX32 (11753110_a_at) / Fold change /veh SNX32 (11753110_a_at) / RFU CDHR5 (11726645_a_at) / Fold change /veh CDHR5 (11726645_a_at) / RFU RCAN1 (11760418_a_at) / Fold change /veh RCAN1 (11760418_a_at) / RFU FAM167A (11723789_a_at) / Fold change /veh FAM167A (11723789_a_at) / RFU FAM26E (11764081_at) / Fold change /veh FAM26E (11764081_at) / RFU ISYNA1 (11749810_s_at) / Fold change /veh ISYNA1 (11749810_s_at) / RFU ACY1 (11761880_at) / Fold change /veh ACY1 (11761880_at) / RFU 11764098_at / Fold change /veh 11764098_at / RFU SAMD14 (11745864_x_at) / Fold change /veh SAMD14 (11745864_x_at) / RFU NPB (11741838_a_at) / Fold change /veh NPB (11741838_a_at) / RFU TMPRSS6 (11731388_a_at) / Fold change /veh TMPRSS6 (11731388_a_at) / RFU KRTAP10-2 (11738614_at) / Fold change /veh KRTAP10-2 (11738614_at) / RFU ARHGAP8 /// PRR5-ARHGAP8 (11727945_x_at) / Fold change /veh ARHGAP8 /// PRR5-ARHGAP8 (11727945_x_at) / RFU KRTAP5-7 /// NADSYN1 (11734609_at) / Fold change /veh KRTAP5-7 /// NADSYN1 (11734609_at) / RFU RASL12 (11751679_a_at) / Fold change /veh RASL12 (11751679_a_at) / RFU CDKN2B (11736163_a_at) / Fold change /veh CDKN2B (11736163_a_at) / RFU PRF1 (11729649_at) / Fold change /veh PRF1 (11729649_at) / RFU, ZNF638 /// ZNF638-IT1 / Fold change vs veh, ZNF638 /// ZNF638-IT1 / RFU, PANK3 / Fold change vs veh, PANK3 / RFU, SH3YL1 / Fold change vs veh, SH3YL1 / RFU, ZEB2 / Fold change vs veh, ZEB2 / RFU, NRIP1 / Fold change vs veh, NRIP1 / RFU, PTTG1IP / Fold change vs veh, PTTG1IP / RFU, CAPN2 / Fold change vs veh, CAPN2 / RFU, MED14 / Fold change vs veh, MED14 / RFU, SNORA58 / Fold change vs veh, SNORA58 / RFU, C1orf63 / Fold change vs veh, C1orf63 / RFU, LRRFIP1 / Fold change vs veh, LRRFIP1 / RFU, NDUFAF7 / Fold change vs veh, NDUFAF7 / RFU, SLC12A2 / Fold change vs veh, SLC12A2 / RFU, IBTK / Fold change vs veh, IBTK / RFU, ESF1 / Fold change vs veh, ESF1 / Fold change vs veh, TMEM50B / RFU, TAOK1 / Fold change vs veh, TAOK1 / RFU, ACBD3 / Fold change vs veh, ACBD3 / RFU, TMA16 / Fold change vs veh, TMA16 / RFU, RWDD3 / Fold change vs veh, RWDD3 / RFU, BCAT1 / Fold change vs veh, BCAT1 / RFU, EDEM3 / Fold change vs veh, EDEM3 / RFU, TMEM33 / Fold change vs veh, TMEM33 / RFU, WDR75 / Fold change vs veh, WDR75 / RFU, AHCTF1 / Fold change vs veh, AHCTF1 / RFU, TFRC / Fold change vs veh, TFRC / RFU, ZDHHC17 / Fold change vs veh, ZDHHC17 / RFU, NOM1 / Fold change vs veh, NOM1 / RFU, ARL8B / Fold change vs veh, ARL8B / RFU, ZBTB11 / Fold change vs veh, ZBTB11 / RFU, TAMM41 / Fold change vs veh, TAMM41 / RFU, KIAA1704 /// LOC100996395 / Fold change vs veh, KIAA1704 /// LOC100996395 / RFU, ING1 / Fold change vs veh, ING1 / RFU, TRMT61B / Fold change vs veh, TRMT61B / RFU, FUBP3 / Fold change vs veh, FUBP3 / RFU, TP53 / Fold change vs veh, TP53 / RFU, TNKS2 / Fold change vs veh, TNKS2 / RFU, ZFP14 / Fold change vs veh, ZFP14 / RFU, ACTR2 / Fold change vs veh, ACTR2 / RFU, PPP3R1 / Fold change vs veh, PPP3R1 / RFU, PIK3R1 / Fold change vs veh, PIK3R1 / RFU, HNRNPA1 / Fold change vs veh, HNRNPA1 / RFU, RNF170 / Fold change vs veh, RNF170 / RFU, ZNF28 / Fold change vs veh, ZNF28 / RFU, RNGTT / Fold change vs veh, RNGTT / RFU, OGT / Fold change vs veh, OGT / RFU, BRD1 / Fold change vs veh, BRD1 / RFU, MARS / Fold change vs veh, MARS / RFU, ZNF655 / Fold change vs veh, ZNF655 / RFU, FAHD1 / Fold change vs veh, FAHD1 / RFU, BDP1 / Fold change vs veh, BDP1 / RFU, LRRCC1 / Fold change vs veh, LRRCC1 / RFU, ARID1A / Fold change vs veh, ARID1A / RFU, ZNF146 / Fold change vs veh, ZNF146 / RFU, ZNF330 / Fold change vs veh, ZNF330 / RFU, GPN3 / Fold change vs veh, GPN3 / RFU, C9orf123 / Fold change vs veh, C9orf123 / RFU, N4BP2L2 / Fold change vs veh, N4BP2L2 / RFU, ARFIP1 / Fold change vs veh, ARFIP1 / RFU, FAM179B / Fold change vs veh, FAM179B / RFU, BCL10 / Fold change vs veh, BCL10 / RFU, UHRF1BP1L / Fold change vs veh, UHRF1BP1L / RFU, BET1 / Fold change vs veh, BET1 / RFU, CNOT2 / Fold change vs veh, CNOT2 / RFU, ZNF268 / Fold change vs veh, ZNF268 / Fold change vs veh, ZNF507 / RFU, DGCR2 / Fold change vs veh, DGCR2 / RFU, WDSUB1 / Fold change vs veh, WDSUB1 / Fold change vs veh, HSP90B1 /// MIR3652 / RFU, ADSS / Fold change vs veh, ADSS / RFU, GK / Fold change vs veh, GK / RFU, ZNF148 / Fold change vs veh, ZNF148 / RFU, TAF9 / Fold change vs veh, TAF9 / RFU, SLC1A5 / Fold change vs veh, SLC1A5 / RFU, SLMO2 / Fold change vs veh, SLMO2 / RFU, ABCC4 / Fold change vs veh, ABCC4 / RFU, LOC101060439 /// RAP1B / Fold change vs veh, LOC101060439 /// RAP1B / RFU, RFX7 / Fold change vs veh, RFX7 / RFU, GTPBP10 / Fold change vs veh, GTPBP10 / RFU, CNEP1R1 / Fold change vs veh, CNEP1R1 / RFU, BIVM-ERCC5 /// ERCC5 / Fold change vs veh, BIVM-ERCC5 /// ERCC5 / RFU, ILF3 / Fold change vs veh, ILF3 / RFU 11762660_at / Fold change /veh 11762660_at / RFU VCAN (11757783_s_at) / Fold change /veh VCAN (11757783_s_at) / RFU DDX43 (11728927_at) / Fold change /veh DDX43 (11728927_at) / RFU KRT8 (11758188_x_at) / Fold change /veh KRT8 (11758188_x_at) / RFU NKD1 (11759106_at) / Fold change /veh NKD1 (11759106_at) / RFU SRD5A1 (11742802_a_at) / Fold change /veh SRD5A1 (11742802_a_at) / RFU TPSAB1 /// TPSB2 (11721975_s_at) / Fold change /veh TPSAB1 /// TPSB2 (11721975_s_at) / RFU GSTM3 (11746129_a_at) / Fold change /veh GSTM3 (11746129_a_at) / RFU IL23R (11737362_x_at) / Fold change /veh IL23R (11737362_x_at) / RFU TMEM51 (11727254_a_at) / Fold change /veh TMEM51 (11727254_a_at) / RFU PIWIL2 (11732686_x_at) / Fold change /veh PIWIL2 (11732686_x_at) / RFU ORM1 (11744905_x_at) / Fold change /veh ORM1 (11744905_x_at) / RFU CCDC152 (11743942_at) / Fold change /veh CCDC152 (11743942_at) / RFU ECM1 (11717891_a_at) / Fold change /veh ECM1 (11717891_a_at) / RFU IL23R (11748794_a_at) / Fold change /veh IL23R (11748794_a_at) / RFU TNFAIP8L3 (11732012_x_at) / Fold change /veh TNFAIP8L3 (11732012_x_at) / RFU MBOAT4 (11741988_at) / Fold change /veh MBOAT4 (11741988_at) / RFU 11764193_at / Fold change /veh 11764193_at / RFU TMEM53 (11763286_at) / Fold change /veh TMEM53 (11763286_at) / RFU MAGEB2 (11727129_at) / Fold change /veh MAGEB2 (11727129_at) / RFU TMEM200A (11744735_a_at) / Fold change /veh TMEM200A (11744735_a_at) / RFU CCDC152 (11751479_a_at) / Fold change /veh CCDC152 (11751479_a_at) / RFU FAM211A (11726209_a_at) / Fold change /veh FAM211A (11726209_a_at) / RFU RGS16 (11746705_a_at) / Fold change /veh RGS16 (11746705_a_at) / RFU VCAN (11755009_s_at) / Fold change /veh VCAN (11755009_s_at) / RFU RHOB (11743442_s_at) / Fold change /veh RHOB (11743442_s_at) / RFU RGS16 (11720943_a_at) / Fold change /veh RGS16 (11720943_a_at) / RFU RGS16 (11720944_at) / Fold change /veh RGS16 (11720944_at) / RFU, VPS4B / Fold change vs veh, VPS4B / RFU, CREB1 / Fold change vs veh, CREB1 / RFU, DNAJC13 / Fold change vs veh, DNAJC13 / RFU, GNAQ / Fold change vs veh, GNAQ / RFU, CDK5R1 / Fold change vs veh, CDK5R1 / RFU, ZRANB3 / Fold change vs veh, ZRANB3 / RFU, CUL4A / Fold change vs veh, CUL4A / RFU, CCNY / Fold change vs veh, CCNY / RFU, UFL1 / Fold change vs veh, UFL1 / RFU, COG3 / Fold change vs veh, COG3 / RFU, DIAPH2 / Fold change vs veh, DIAPH2 / RFU, SKA2 / Fold change vs veh, SKA2 / RFU, AFF3 / Fold change vs veh, AFF3 / RFU, LMF1 / Fold change vs veh, LMF1 / RFU, IPO11 / Fold change vs veh, IPO11 / RFU, DFFB / Fold change vs veh, DFFB / RFU, FOXP1 / Fold change vs veh, FOXP1 / RFU, CARD8 / Fold change vs veh, CARD8 / RFU, STRN3 / Fold change vs veh, STRN3 / RFU, ADK / Fold change vs veh, ADK / RFU, RASSF2 / Fold change vs veh, RASSF2 / RFU, WIPF1 / Fold change vs veh, WIPF1 / RFU, LARP1B / Fold change vs veh, LARP1B / RFU, RASA1 / Fold change vs veh, RASA1 / RFU, RB1 / Fold change vs veh, RB1 / RFU, PPFIA1 / Fold change vs veh, PPFIA1 / RFU, MAT2A / Fold change vs veh, MAT2A / RFU, CCT5 / Fold change vs veh, CCT5 / RFU, WDR92 / Fold change vs veh, WDR92 / RFU, CUX1 / Fold change vs veh, CUX1 / RFU, TTC7A / Fold change vs veh, TTC7A / RFU, TMEM135 / Fold change vs veh, TMEM135 / RFU, DEPTOR / Fold change vs veh, DEPTOR / RFU, CPM / Fold change vs veh, CPM / RFU, DNAJB6 / Fold change vs veh, DNAJB6 / RFU, CACNA2D3 / Fold change vs veh, CACNA2D3 / RFU, DTX4 / Fold change vs veh, DTX4 / RFU, TFCP2 / Fold change vs veh, TFCP2 / RFU, GMCL1 /// GMCL1P1 / Fold change vs veh, GMCL1 /// GMCL1P1 / RFU, AEBP2 / Fold change vs veh, AEBP2 / RFU, SNHG1 /// SNORD22 /// SNORD25 /// SNORD26 /// SNORD27 /// SNORD28 /// SNORD29 /// SNORD31 / Fold change vs veh, SNHG1 /// SNORD22 /// SNORD25 /// SNORD26 /// SNORD27 /// SNORD28 /// SNORD29 /// SNORD31 / Fold change (Aza/veh), C12orf56 (ProbeSet 11735607_a_at) / Fold change (ACY-1035/veh), C12orf56 (ProbeSet 11735607_a_at) / Fold change (Aza/veh), FGFR1OP (ProbeSet 11751329_s_at) / Fold change (ACY-1035/veh), FGFR1OP (ProbeSet 11751329_s_at) / Fold change (Aza/veh), VPS36 (ProbeSet 11739960_a_at) / Fold change (ACY-1035/veh), VPS36 (ProbeSet 11739960_a_at) / RFU SYPL1 (11715823_x_at) / Fold change /veh SYPL1 (11715823_x_at) / RFU IGFBP7 (11715501_s_at) / Fold change /veh IGFBP7 (11715501_s_at) / RFU REEP3 (11722064_at) / Fold change /veh REEP3 (11722064_at) / RFU IGLL1 (11728026_x_at) / Fold change /veh IGLL1 (11728026_x_at): dose or concentration left out as unconfirmed
Details: ProbeSet 11718977_a_at; LIST B

Nc1ncn([C@@H]2O[C@H](CO)[C@@H](O)[C@H]2O)c(=O)n1 [azacitidine]
Fold change vs veh, CAPN2: 0.92
